Experimental data as given in publication PMC5457276, “Influence of Amphibian Antimicrobial Peptides and Short Lipopeptides on Bacterial Biofilms Formed on Contact Lenses” (Materials, 2016).
Like-named read-outs stand apart in the source and are kept apart here.

Tests used:
[1] = tested on: Pseudomonas aeruginosa ATCC 9027 biofilm on contact lenses; type: cell-based; conditions: P. aeruginosa, triplicate
Method: (§1) All selected strains were obtained from the Polish Collection of Microorganisms (Polish Academy of Science, Wroclaw, Poland). Four Gram-positive and three Gram-negative strains linked with CL-related infections lenses were tested (Table 5). The microorganisms were cultured in a Mueller Hinton Broth II (MHB, Biocorp, Warsaw, Poland) overnight, at 37 °C.
(§2) The CL and CL solutions used are commercially available. One-day CL (1-Day Acuvue Moist) containing Etafilcon A were obtained from Johnson and Johnson Vision Care (Jacksonsville, FL, USA). Four popular CL solutions were also tested (Table 6).
(§3) Biofilms of strains related with ocular infections were cultured on CL placed in polystyrene 24-well plates (Orange Scientific, Braine-l’Alleud, Belgium). Biomaterials were incubated at 37 °C in bacterial suspension in the Mueller Hinton Broth II (Biocorp, Warsaw, Poland) at initial inoculums of ca. 5 × 10^5 CFU/mL. After 24 h of incubation all of the CL were rinsed three times with a sterile phosphate buffer (AppliChem, Darmstadt, Germany). The lenses were then transferred into new wells with fresh MHB II. One-day biofilms were exposed to a pre-determined range of peptides concentration. […] Anti-biofilm activity of selected peptides was visualized using a cell-viability reagent, Resazurin (Sigma Aldrich, St. Louis, MO, USA). Upon contact with living cells the dye is metabolized by bacterial dehydrogenases resulting in the reduction of the blue resazurin to a pink resorufin. Positive controls contained CL immersed in bacterial suspensions without antimicrobials, while CL in a sterile culture medium served as negative controls. The minimum biofilm eradication concentration (MBEC) was read after a one-hour incubation with Resazurin (final concentration per sample = 0.005%) MBEC was determined as the lowest concentration at which the reduction of resazurin was lower or equal (10% ± 0.5%) as compared to positive (100%) and negative (0%) controls. All experiments were performed in triplicate.

[2] = tested on: Escherichia coli ATCC 25922 biofilm on contact lenses; type: cell-based; conditions: for Minimum biofilm eradication concentration (reduction of resazurin ≤10% ± 0.5%): E. coli, triplicate
Method: as §1, §2, §3

HaCaT cells = conditions: cited from earlier work
Source text: Our data reveal that AMPs might be promising antibacterial additives to CL solutions. However there are certain limitations and issues which need to be considered. The long-time stability of compounds in a water solution needs to be examined, but first of all the evaluation of toxicity towards human eye cells needs to be carried out. In the previous study tested amphibian peptides turned out to be safe towards HaCaT cells at their microbiologically-active concentrations. […] Considering the potenti ...

[3] = tested on: Staphylococcus aureus ATCC 25923 biofilm on contact lenses; test: Biofilm assay on contact lenses (MBEC, resazurin); type: cell-based; conditions: S. aureus, triplicate
Method: as §1, §2, §3

[4] = tested on: Streptococcus pyogenes PCM 465 biofilm on contact lenses; test: Biofilm assay on contact lenses (MBEC, resazurin); type: cell-based; conditions: S. pyogenes, triplicate
Method: as §1, §2, §3

[5] = tested on: Streptococcus pneumoniae ATCC 49619 biofilm on contact lenses; test: Biofilm assay on contact lenses (MBEC, resazurin); type: cell-based; conditions: S. pneumoniae, triplicate
Method: as §1, §2, §3

[6] = tested on: Staphylococcus epidermidis ATCC 14990 biofilm on contact lenses; test: Biofilm assay on contact lenses (MBEC, resazurin); type: cell-based; conditions: S. epidermidis, triplicate
Method: as §1, §2, §3

[7] = tested on: biofilms formed by Gram-positive bacteria on contact lenses; test: Biofilm assay on contact lenses (MBEC), summary over Gram-positive strains; type: cell-based
Method: as §1, §2, §3

[8] = tested on: Pseudomonas aeruginosa ATCC 9027; type: cell-based; conditions: P. aeruginosa; same MIC in μM (in brackets); broth microdilution, MHB II, overnight at 37 °C, triplicate
Method: as §1
(§4) Peptide susceptibility tests on the reference bacterial strains were performed with the following procedures recommended by the Clinical and Laboratory Standard Institute (CLSI). The activity of five peptides was tested on the Mueller Hinton Broth II (Biocorp, Warsaw, Poland) using broth microdilution method on polystyrene 96-well plates (Kartell, Noviglio, Italy). […] The plates were incubated overnight at 37 °C. MIC was assumed as the lowest concentration at which bacterial growth was no longer visible. All experiments were performed in triplicate.

[9] = tested on: Staphylococcus aureus ATCC 25923; type: cell-based; conditions: S. aureus; same MIC in μM (in brackets); broth microdilution, MHB II, overnight at 37 °C, triplicate
Method: as §1, §4

[10] = tested on: Streptococcus pneumoniae ATCC 49619; type: cell-based; conditions: S. pneumoniae; same MIC in μM (in brackets); broth microdilution, MHB II, overnight at 37 °C, triplicate
Method: as §1, §4

[11] = tested on: Escherichia coli ATCC 25922; type: cell-based; conditions: E. coli; same MIC in μM (in brackets); broth microdilution, MHB II, overnight at 37 °C, triplicate
Method: as §1, §4

[12] = tested on: Staphylococcus epidermidis ATCC 14990; type: cell-based; conditions: S. epidermidis; same MIC in μM (in brackets); broth microdilution, MHB II, overnight at 37 °C, triplicate
Method: as §1, §4

[13] = tested on: Streptococcus pyogenes PCM 465; type: cell-based; conditions: S. pyogenes; same MIC in μM (in brackets); broth microdilution, MHB II, overnight at 37 °C, triplicate
Method: as §1, §4

[14] = 25 °C, one-day biofilm on contact lens (Etafilcon A), 24 h exposure in MHB II, resazurin read-out
[15] = 25 °C, same MBEC in μM (in brackets), biofilm on contact lens, 24 h exposure
[16] = 37 °C, one-day biofilm on contact lens (Etafilcon A), 24 h exposure in MHB II, resazurin read-out
[17] = 37 °C, same MBEC in μM (in brackets), biofilm on contact lens, 24 h exposure

CCCCCCCCCCCCCCCC(=O)N[C@@H](CCCCN)C(=O)N[C@@H](CCCCN)C(N)=O [Palm-KK-NH2]
Minimum biofilm eradication concentration (reduction of resazurin ≤10% ± 0.5%) [1, 14]: >512 µg/mL | Minimum biofilm eradication concentration (reduction of resazurin ≤10% ± 0.5%) [1, 15]: (>693.0) μM | Minimum biofilm eradication concentration (reduction of resazurin ≤10% ± 0.5%) [1, 16]: >512 µg/mL | Minimum biofilm eradication concentration (reduction of resazurin ≤10% ± 0.5%) [1, 17]: (>693.0) μM | Concentration eradicating E. coli biofilms (MBEC) ([2]; ATCC 25922, 24 h): 256 µg/mL | Minimum biofilm eradication concentration (reduction of resazurin ≤10% ± 0.5%) [2, 14]: 256 µg/mL | Minimum biofilm eradication concentration (reduction of resazurin ≤10% ± 0.5%) [2, 15]: (346.5) μM | Minimum biofilm eradication concentration (reduction of resazurin ≤10% ± 0.5%) [2, 16]: 256 µg/mL | Minimum biofilm eradication concentration (reduction of resazurin ≤10% ± 0.5%) [2, 17]: (346.5) μM | Toxicity towards HaCaT cells / human keratinocytes (in words) (HaCaT cells): high toxicity | Minimum biofilm eradication concentration (reduction of resazurin ≤10% ± 0.5%) [3, 14]: 32 µg/mL | Minimum biofilm eradication concentration (reduction of resazurin ≤10% ± 0.5%) [3, 15]: (43.3) μM | Minimum biofilm eradication concentration (reduction of resazurin ≤10% ± 0.5%) [3, 16]: 64 µg/mL | Minimum biofilm eradication concentration (reduction of resazurin ≤10% ± 0.5%) [3, 17]: (86.6) μM | Minimum biofilm eradication concentration (reduction of resazurin ≤10% ± 0.5%) [4, 14]: 32 µg/mL | Minimum biofilm eradication concentration (reduction of resazurin ≤10% ± 0.5%) [4, 15]: (43.3) μM | Minimum biofilm eradication concentration (reduction of resazurin ≤10% ± 0.5%) [4, 16]: 512 µg/mL | Minimum biofilm eradication concentration (reduction of resazurin ≤10% ± 0.5%) [4, 17]: (693.0) μM | Minimum biofilm eradication concentration (reduction of resazurin ≤10% ± 0.5%) [5, 14]: 64 µg/mL | Minimum biofilm eradication concentration (reduction of resazurin ≤10% ± 0.5%) [5, 15]: (86.6) μM | Minimum biofilm eradication concentration (reduction of resazurin ≤10% ± 0.5%) [5, 16]: 64 µg/mL | Minimum biofilm eradication concentration (reduction of resazurin ≤10% ± 0.5%) [5, 17]: (86.6) μM | Minimum biofilm eradication concentration (reduction of resazurin ≤10% ± 0.5%) [6, 14]: 32 µg/mL | Minimum biofilm eradication concentration (reduction of resazurin ≤10% ± 0.5%) [6, 15]: (43.3) μM | Minimum biofilm eradication concentration (reduction of resazurin ≤10% ± 0.5%) [6, 16]: 32 µg/mL | Minimum biofilm eradication concentration (reduction of resazurin ≤10% ± 0.5%) [6, 17]: (43.3) μM | Concentrations eradicating biofilms formed by Gram-positive bacteria (MBEC) ([7]; at 37 °C): 32 to 512 µg/mL | Concentrations eradicating biofilms formed by Gram-positive bacteria (MBEC) ([7]; printed "below 25 °C"): 32 to 64 µg/mL | Minimum inhibitory concentration [8]: (21.7) μM | Minimum inhibitory concentration [9]: (10.8) μM | Minimum inhibitory concentration [10]: (10.8) μM | Minimum inhibitory concentration [11]: (10.8) μM | Minimum inhibitory concentration [12]: (5.4) μM | Minimum inhibitory concentration [13]: (21.7) μM
